We go through 16 compounds from US20250215029A1 (Recludix Pharma, Inc., priority 2022, published 2025).

Molecules are shown by their SMILES.

The target of assay [1] is T1, Recombinant STAT6 protein (STAT6 (W123-T658)) (Homo sapiens, UniProt P42226).
T1 construct: Recombinant STAT6 protein (STAT6 (W123-T658))
T1 sequence (P42226 123-658): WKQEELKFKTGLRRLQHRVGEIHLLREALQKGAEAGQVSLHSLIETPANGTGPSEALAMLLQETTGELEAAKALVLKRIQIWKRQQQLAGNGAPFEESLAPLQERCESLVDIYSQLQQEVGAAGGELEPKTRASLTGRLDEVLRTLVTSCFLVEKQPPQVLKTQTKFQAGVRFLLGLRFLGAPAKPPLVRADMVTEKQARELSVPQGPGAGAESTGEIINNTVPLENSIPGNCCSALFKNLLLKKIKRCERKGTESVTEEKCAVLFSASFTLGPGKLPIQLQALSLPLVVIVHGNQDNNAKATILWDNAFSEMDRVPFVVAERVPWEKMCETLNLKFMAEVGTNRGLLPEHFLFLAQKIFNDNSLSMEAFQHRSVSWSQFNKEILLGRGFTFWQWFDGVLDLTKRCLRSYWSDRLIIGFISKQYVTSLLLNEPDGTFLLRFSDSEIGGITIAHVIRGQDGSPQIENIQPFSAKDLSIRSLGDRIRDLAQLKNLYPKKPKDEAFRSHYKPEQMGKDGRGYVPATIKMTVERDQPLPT
Nature of the assay: STAT6 Fluorescence Polarization (FP) Assay. The following applies: STAT6 (W123-T658) 250 nM, probe 5-FAM-Ap[…]-NH2 2 nM, 45-minute incubation; read-out: STAT6 (FP assay IC50 class). Type of assay: binding. The method in brief: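 Competitive FP binding: recombinant STAT6 (W123-T658) at 250 nM, labeled phosphotyrosine peptide at 2 nM, compounds at 1% DMSO, 45 min at RT before reading. IC50 values were obtained from nonlinear regression of mP versus log concentration.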
A general note: In fluorescence polarisation assays a small probe gives low polarisation when free and higher when bound to something large.

Assay [2] has as its target T2, Recombinant STAT3 protein (STAT3 (G127-I722)) (Homo sapiens, UniProt P40763).
T2 construct: Recombinant STAT3 protein (STAT3 (G127-I722))
Description: STAT3 Fluorescence Polarization (FP) Assay. The following applies: STAT3 (G127-I722) 25 nM, probe 5-FAM-GpYLPQTV-NH2 2 nM, 45-minute incubation; read-out: STAT3 (FP assay IC50 class). In kind it is binding. An outline of the steps: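 Displacement of a fluorescent phosphotyrosine peptide (5-FAM-GpYLPQTV-NH2, 2 nM) from 25 nM recombinant STAT3 G127-I722 was monitored by FP after 45 min at room temperature.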

T2 sequence (P40763 127-722): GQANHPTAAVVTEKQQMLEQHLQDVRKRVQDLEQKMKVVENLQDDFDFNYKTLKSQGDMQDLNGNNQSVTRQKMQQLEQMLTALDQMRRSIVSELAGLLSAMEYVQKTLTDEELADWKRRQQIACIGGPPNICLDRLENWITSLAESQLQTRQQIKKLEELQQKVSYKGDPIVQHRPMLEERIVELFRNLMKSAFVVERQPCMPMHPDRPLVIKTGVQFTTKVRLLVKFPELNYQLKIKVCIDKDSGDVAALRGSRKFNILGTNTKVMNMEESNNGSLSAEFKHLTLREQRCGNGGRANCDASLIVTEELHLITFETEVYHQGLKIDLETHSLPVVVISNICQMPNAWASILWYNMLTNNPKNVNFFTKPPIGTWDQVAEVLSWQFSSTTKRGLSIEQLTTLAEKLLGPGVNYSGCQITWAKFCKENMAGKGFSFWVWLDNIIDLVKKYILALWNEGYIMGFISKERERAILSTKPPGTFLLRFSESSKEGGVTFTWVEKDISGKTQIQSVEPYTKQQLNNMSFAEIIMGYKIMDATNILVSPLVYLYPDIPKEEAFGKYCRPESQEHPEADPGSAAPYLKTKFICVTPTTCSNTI

Regarding `Cn1ccc(C2(F)CCN(C(=O)[C@@H]3CC[C@@H]4CCCC[C@H](NC(=O)c5ccc6ccc(C(F)P(=O)(O)O)cc6c5)C(=O)N43)C2)cc1=O` (stereo partly drawn) [Compound 903, (fluoro(7-(((3S,6S,10aS)-3-(3-fluoro-3-(1-methyl-2-oxo-1,2-dihydropyridin-4-yl)pyrrolidine-1-carbonyl)-5-oxodecahydropyrrolo [1,2-a]azocin-6-yl)carbamoyl)naphthalen-2-yl)methyl) phosphonic acid], the IC50 (usually the concentration that inhibits the measured activity by half) in assay [1] fell in the range of 300 to 3000 nM; in assay [2], 1000 to 10000 nM.
Take `O=C(N[C@H]1CCC[C@H]2CC[C@@H](C(=O)N3CC(c4cccnc4)CC34CC4)N2C1=O)c1ccc2ccc(C(F)P(=O)(O)O)cc2c1` (stereo partly drawn) [Compound 904, (fluoro(7-(((3S,6S,9aS)-5-oxo-3-(6-(pyridin-3-yl)-4-azaspiro[2.4]heptane-4-carbonyl)octahydro-1H-pyrrolo[1,2-a]azepin-6-yl)carbamoyl)naphthalen-2-yl)methyl) phosphonic acid]: the IC50 is 300 to 3000 nM in assay [1] and 1000 to 10000 nM in assay [2].
The like results for `O=C(N[C@H]1CCCC[C@H]2CC[C@@H](C(=O)N3CCC(c4ccn(C5CC5)c(=O)c4)C3)N2C1=O)c1ccc2ccc(C(F)P(=O)(O)O)cc2c1` (stereo partly drawn) [Compound 906, ((7-(((3S,6S,10aS)-3-(3-(1-cyclopropyl-2-oxo-1,2-dihydropyridin-4-yl)pyrrolidine-1-carbonyl)-5-oxodecahydropyrrolo[1,2-a]azocin-6-yl)carbamoyl)naphthalen-2-yl)fluoromethyl) phosphonic acid] were, in that order, 300 to 3000 nM and 1000 to 10000 nM.
The like results for `O=C(N[C@H]1CCC[C@H]2CC[C@@H](C(=O)N3CC(c4cccnc4)CC34CC4)N2C1=O)c1cc2cc(C(F)P(=O)(O)O)ccc2s1` (stereo partly drawn) [Compound 907, (fluoro(2-(((3S,6S,9aS)-5-oxo-3-(6-(pyridin-3-yl)-4-azaspiro[2.4]heptane-4-carbonyl)octahydro-1H-pyrrolo[1,2-a]azepin-6-yl)carbamoyl)benzo [b]thiophen-5-yl)methyl) phosphonic acid] were, in that order, no more than 300 nM and 1000 to 10000 nM.
The like results for `O=C(N[C@H]1CCCC[C@H]2CC[C@@H](C(=O)N3CC(c4cccnc4)CC34CC4)N2C1=O)c1cc2cc(C(F)P(=O)(O)O)ccc2s1` (stereo partly drawn) [Compound 912, (fluoro(2-(((3S,6S,10aS)-5-oxo-3-(6-(pyridin-3-yl)-4-azaspiro[2.4]heptane-4-carbonyl)decahydropyrrolo[1,2-a]azocin-6-yl)carbamoyl)benzo [b]thiophen-5-yl)methyl) phosphonic acid] were, in that order, no more than 300 nM and 1000 to 10000 nM.
For the compound `Cn1ncc(C2CCN(C(=O)[C@@H]3CC[C@@H]4CCCC[C@H](NC(=O)c5cc6cc(C(F)P(=O)(O)O)ccc6s5)C(=O)N43)C2)cc1=O` (stereo partly drawn) [Compound 913, (fluoro(2-(((3S,6S,10aS)-3-(3-(1-methyl-6-oxo-1,6-dihydropyridazin-4-yl)pyrrolidine-1-carbonyl)-5-oxodecahydropyrrolo [1,2-a]azocin-6-yl)carbamoyl)benzo [b]thiophen-5-yl)methyl) phosphonic acid], the IC50 was 300 to 3000 nM in assay [1] and 1000 to 10000 nM in assay [2].
For `Cn1ccc(C2(O)CCN(C(=O)[C@@H]3CC[C@@H]4CCCC[C@H](NC(=O)c5cc6cc(C(F)P(=O)(O)O)ccc6s5)C(=O)N43)C2)cc1=O` (stereo partly drawn) [Compound 914, (fluoro(2-(((3S,6S,10aS)-3-(3-hydroxy-3-(1-methyl-2-oxo-1,2-dihydropyridin-4-yl)pyrrolidine-1-carbonyl)-5-oxodecahydropyrrolo [1,2-a]azocin-6-yl)carbamoyl)benzo [b]thiophen-5-yl)methyl) phosphonic acid], the IC50 in assay [1] lay within 300 to 3000 nM; in assay [2] it was 100 to 1000 nM.
The like results for `O=C(N[C@H]1CCC[C@H]2CC[C@@H](C(=O)N3C(=O)N(c4cccnc4)C(=O)C34CC4)N2C1=O)c1cc2cc([C@H](F)P(=O)(O)O)ccc2s1` [Compound 915, ((R)-(2-(((3S,6S,9aS)-3-(5,7-dioxo-6-(pyridin-3-yl)-4,6-diazaspiro[2.4]heptane-4-carbonyl)-5-oxooctahydro-1H-pyrrolo[1,2-a]azepin-6-yl)carbamoyl)benzo [b]thiophen-5-yl)fluoromethyl) phosphonic acid] were, in that order, no more than 300 nM and 1000 to 10000 nM.
On to `N#Cc1cc(C2CN(C(=O)[C@@H]3CC[C@@H]4CCC[C@H](NC(=O)c5cc6cc(C(F)P(=O)(O)O)ccc6s5)C(=O)N43)C2)ccn1` (stereo partly drawn) [Compound 918, ((2-(((3S,6S,9aS)-3-(3-(2-cyanopyridin-4-yl)azetidine-1-carbonyl)-5-oxooctahydro-1H-pyrrolo[1,2-a]azepin-6-yl)carbamoyl)benzo [b]thiophen-5-yl)fluoromethyl) phosphonic acid], for which the IC50 in assay [1] was 3000 to 30000 nM; in assay [2] it was less than 100 nM.
The like results for `N#C[C@H]1[C@H](c2ccccc2)CN(C(=O)[C@@H]2CC[C@@H]3CCC[C@H](NC(=O)c4cc5cc(CP(=O)(O)O)ccc5s4)C(=O)N32)C12CC2` [Compound 922, ((2-(((3S,6S,9aS)-3-((6R,7S)-7-cyano-6-phenyl-4-azaspiro[2.4]heptane-4-carbonyl)-5-oxooctahydro-1H-pyrrolo[1,2-a]azepin-6-yl)carbamoyl)benzo [b]thiophen-5-yl)methyl) phosphonic acid] were, in that order, 300 to 3000 nM and 1000 to 10000 nM.
The like results for `COc1c(C2CN(C(=O)[C@@H]3CC[C@@H]4CCC[C@H](NC(=O)c5cc6cc(C(F)P(=O)(O)O)ccc6s5)C(=O)N43)C2)ccnc1F` (stereo partly drawn) [Compound 925, (fluoro(2-(((3S,6S,9aS)-3-(3-(2-fluoro-3-methoxypyridin-4-yl)azetidine-1-carbonyl)-5-oxooctahydro-1H-pyrrolo[1,2-a]azepin-6-yl)carbamoyl)benzo [b]thiophen-5-yl)methyl) phosphonic acid] were, in that order, 3000 to 30000 nM and less than 100 nM.
The like results for `COC[C@@H]1CCN1c1ccncc1C1CN(C(=O)[C@@H]2CC[C@@H]3CCC[C@H](NC(=O)c4cc5cc([C@@H](F)P(=O)(O)O)ccc5s4)C(=O)N32)C1` [Compound 926, ((S)-fluoro(2-(((3S,6S,9aS)-3-(3-(4-((S)-2-(methoxymethyl)azetidin-1-yl)pyridin-3-yl)azetidine-1-carbonyl)-5-oxooctahydro-1H-pyrrolo[1,2-a]azepin-6-yl)carbamoyl)benzo [b]thiophen-5-yl)methyl) phosphonic acid] were, in that order, 3000 to 30000 nM and less than 100 nM.
With `O=C(N[C@H]1CCC[C@H]2CC[C@@H](C(=O)N3CC(c4ccnc(O)n4)C3)N2C1=O)c1cc2cc(C(F)P(=O)(O)O)ccc2s1` (stereo partly drawn) [Compound 927, (fluoro(2-(((3S,6S,9aS)-3-(3-(2-hydroxypyrimidin-4-yl)azetidine-1-carbonyl)-5-oxooctahydro-1H-pyrrolo[1,2-a]azepin-6-yl)carbamoyl)benzo [b]thiophen-5-yl)methyl) phosphonic acid], the half-maximal inhibitory concentration (IC50) in assay [1] is 3000 to 30000 nM; in assay [2] it was less than 100 nM.
The like results for `CCOc1c(F)cncc1C1CN(C(=O)[C@@H]2CC[C@@H]3CCC[C@H](NC(=O)c4cc5cc([C@@H](F)P(=O)(O)O)ccc5s4)C(=O)N32)C1` [Compound 928, ((S)-(2-(((3S,6S,9aS)-3-(3-(4-ethoxy-5-fluoropyridin-3-yl)azetidine-1-carbonyl)-5-oxooctahydro-1H-pyrrolo[1,2-a]azepin-6-yl)carbamoyl)benzo [b]thiophen-5-yl)fluoromethyl) phosphonic acid] were, in that order, 3000 to 30000 nM and 1000 to 10000 nM.
The like results for `N#C[C@H]1[C@H](c2ccccc2)CN(C(=O)[C@@H]2CC[C@@H]3CCCC[C@H](NC(=O)c4cc5cc(CP(=O)(O)O)ccc5s4)C(=O)N32)C12CC2` [Compound 929, ((2-(((3S,6S,10aS)-3-((6R,7S)-7-cyano-6-phenyl-4-azaspiro[2.4]heptane-4-carbonyl)-5-oxodecahydropyrrolo [1,2-a]azocin-6-yl)carbamoyl)benzo [b]thiophen-5-yl)methyl) phosphonic acid] were, in that order, no more than 300 nM and 1000 to 10000 nM.
The like results for `CCC[C@@H]1CC[C@H](NC(=O)c2cc3cc([C@H](F)P(=O)(O)O)ccc3s2)C(=O)N2[C@H](CC[C@H]2C(=O)N2CC(c3cnccc3N3CCC3)C2)C1` [Compound 930, ((R)-(2-(((3S,6S,9R,10aR)-3-(3-(4-(azetidin-1-yl)pyridin-3-yl)azetidine-1-carbonyl)-5-oxo-9-propyldecahydro-pyrrolo[1,2-a]azocin-6-yl)carbamoyl)benzo [b]thiophen-5-yl)fluoromethyl) phosphonic acid] were, in that order, 3000 to 30000 nM and 100 to 1000 nM.
